Assay [1] has as its system human colon cancer cell line HCT116. In words: alamarBlue viability assay, HCT116. As to conditions: HCT-116, 72 hours, dose required to inhibit cell growth by 50%. In kind it is cell-based. On the procedure: (§1) The human colon cancer cell line HCT116 and the human breast cancer cell line MCF-7 were from the American Type Culture Collection (ATCC; CCL-247 and HTB-22, respectively).
(§2) The HCT116 cell line was maintained in DMEM GlutaMAX (Invitrogen) supplemented with 10% fetal calf serum and the MCF7 cell line was maintained in RPMI1640 GlutaMAX (Invitrogen) containing 1 mM sodium piruvate and 10% fetal calf serum.
(§3) Cells were grown in a humidified incubator at 37° C. in 5% CO2.
(§4) Cells were plated in 96-well plates at a density of 6000 cells/well in 100 μl medium 24 h before addition of drugs. […] To do so, a drugs-dilution plate at twice the screening concentrations was prepared. 72 hours later, alamarBlue (Biosource, Invitrogen) viability assay was performed following manufacturer's protocol. In brief, alamarBlue diluted in media was added to cells to have a 5% solution. Cells were incubated at 37° C., 3 hours and at room temperature, 30 min. Cells with no drug and, cells with no drug and lysed with triton X-100 were used as controls. Fluorescence was monitored at 530 nm excitation and 590 nm emission wavelengths. Results were quantified using Infinite F200 Microplate Reader (Tecan Group, Ltd.). EC50 were calculated as the dose of drugs required to inhibit cell growth by 50%, with Origin 7.0 computer program.
In general terms: Resazurin is reduced to fluorescent resorufin, in cell work by metabolically active cells.

The test system of assay [2] is human breast cancer cell line MCF-7. In words: alamarBlue viability assay, MCF-7. In kind it is cell-based. To be noted: MCF7, 72 hours, dose required to inhibit cell growth by 50%. As to the method:
as §1, §2, §3, §4

The target of another assay is T1, human recombinant HDAC 8 (Homo sapiens, UniProt Q9BY41).
T1 construct: purchased BPS Bioscience 50008
T1 sequence (Q9BY41 1-377): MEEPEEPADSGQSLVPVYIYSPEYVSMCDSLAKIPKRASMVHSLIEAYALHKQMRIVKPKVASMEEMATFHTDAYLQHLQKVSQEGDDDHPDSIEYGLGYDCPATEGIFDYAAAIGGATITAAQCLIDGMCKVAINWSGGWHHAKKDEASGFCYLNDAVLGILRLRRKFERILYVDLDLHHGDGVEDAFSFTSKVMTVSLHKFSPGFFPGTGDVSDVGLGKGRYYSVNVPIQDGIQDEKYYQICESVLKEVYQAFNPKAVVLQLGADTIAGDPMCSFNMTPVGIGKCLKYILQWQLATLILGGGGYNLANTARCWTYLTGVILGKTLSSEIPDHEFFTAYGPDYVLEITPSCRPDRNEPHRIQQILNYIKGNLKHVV
Briefly: HDAC inhibition assay (Fluor de Lys), HDAC8. In kind it is biochemical. As to conditions: inhibitor-protein incubation 0 hours, reaction 3 hours, 37° C. On the procedure:
(§5) All assays were carried out in the assay buffer: 50 mM Tris/Cl, pH 8.0, 137 mM NaCl, 2.7 mM KCl, 1 mM MgCl2).
(§6) Reactions were carried out in a 96-wells microplate (Corning 96 well Flat Bottom Non-binding surface (black) ref. 3651).
(§7) Potential inhibitors were added after five fold serial dilutions in DMSO. Final DMSO concentration in the assay microplate was kept at 2%.
(§8) Afterwards, human recombinant HDAC1, HDAC 2 or HDAC 8 were added up to […] respectively in assay buffer. When necessary, the mixture was incubated at room temperature prior the addition of substrate.
(§9) Total reaction volume of 50 μl. Human recombinant HDACs could be acquired from commercial sources (HDAC1: ref. #50001, BPS Bioscience™; HDAC 2: ref. #50002, BPS Bioscience™; HDAC 8: ref. #50008, BPS Bioscience™).
(§10) Reactions were stopped with 50 μl Developer (KI-105 Fluor de Lys™, BIOMOL®) with 2 μmol/L trichostatin A (TSA, final concentration 1 μmol/L). After 20 minutes at 37° C., fluorescence (excitation 360 nm, emission 460 nm) was measured using an Infinite F200 fluorimeter (Tecan). Background was determined in reactions using substrate in the absence of enzyme.
(§11) IC50 values are defined as the compound concentration at which the deacetylase activity is 50% inhibited. In these assays the following grading was used (I: IC50≦10 μM; II: 10 μM<IC50≦100 μM; III: 100 μM<IC50≦1 mM) The results obtained are summarized in Table 4.

Another assay deals with T2, human recombinant HDAC 2 (Homo sapiens, UniProt Q92769).
T2 construct: purchased BPS Bioscience 50002
In words: HDAC inhibition assay (Fluor de Lys), HDAC2. Format: biochemical. As to conditions: inhibitor-protein incubation 2 hours, reaction 1 h 30 min, 37° C. As to the method: as §5, §6, §7, §8, §9, §10, §11

The structures appear in SMILES notation. pEC50, pIC50: −log10 of the molar value. Counter-ions that a name gives are not always drawn.

T2 sequence (Q92769 whole entry): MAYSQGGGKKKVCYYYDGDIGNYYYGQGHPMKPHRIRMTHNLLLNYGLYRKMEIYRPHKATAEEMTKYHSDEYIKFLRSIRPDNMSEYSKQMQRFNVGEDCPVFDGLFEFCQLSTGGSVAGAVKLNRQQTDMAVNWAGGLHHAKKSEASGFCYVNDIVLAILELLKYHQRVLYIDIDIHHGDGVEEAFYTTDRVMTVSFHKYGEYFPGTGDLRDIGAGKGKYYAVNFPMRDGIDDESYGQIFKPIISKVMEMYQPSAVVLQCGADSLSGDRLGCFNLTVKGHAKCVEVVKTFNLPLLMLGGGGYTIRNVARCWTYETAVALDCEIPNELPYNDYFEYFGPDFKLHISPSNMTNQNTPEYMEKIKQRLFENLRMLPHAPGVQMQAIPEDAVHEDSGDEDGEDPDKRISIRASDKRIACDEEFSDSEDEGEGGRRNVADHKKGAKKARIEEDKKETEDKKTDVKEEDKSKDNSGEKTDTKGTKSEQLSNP

Usually pEC50 stands for the EC50 on a negative log10 scale, so that one unit is a factor of ten. Low readings indicate a high EC50, high ones a low EC50. Turning to `COC(=O)C(C)CCc1ccccc1` (stereo not drawn) [Example 2, methyl 2-methyl-4-phenylbutanoate], the pEC50 in assay [1] is 3.62; in assay [2], 3.16.
One may read the pIC50 as −log10 of the IC50, conventionally taken in molar units. With `CC(CCc1ccccc1)C(=O)O` (stereo not drawn) [Example 3, 2-Methyl-4-phenylbutanoic acid], the pEC50 in assay [1] is 2.35; in assay [2], < 2.30. The pIC50 on human recombinant HDAC 8 is 3.00 to 4.00.
As to `CCC(CCc1ccccc1)C(=O)OC` (stereo not drawn) [Example 4, Methyl 2-ethyl-4-phenylbutanoate], the figures for the pEC50 in assay [1] and in assay [2] were 3.98 and 3.45, respectively.
On the same counts, the results for `CCC(CCc1ccccc1)C(=O)O` (stereo not drawn) [Example 5, 2-Ethyl-4-phenylbutanoic acid] are 2.62 and 2.85.
Consider `COC(=O)C(CCc1ccccc1)Cc1ccccc1` (stereo not drawn) [Example 8, Methyl 2-benzyl-4-phenylbutanoate], for which the pEC50 in assay [2] is 2.30.
Consider `O=C(O)C(C/C=C/c1ccccc1)CCc1ccccc1` (stereo not drawn) [Example 21, (4E)-5-Phenyl-2-(2-phenylethyl)pent-4-enoic acid], for which the pEC50 in assay [1] is 3.69. Besides, the pIC50 was 3.00 to 4.00 at human recombinant HDAC 2 and 4.00 to 5.00 at human recombinant HDAC 8.
Consider `O=C(O)C(CCCc1ccc2ccccc2c1)CCc1ccccc1` (stereo not drawn) [Example 22, 5-(2-Naphthyl)-2-(2-phenylethyl)pentanoic acid], for which the pEC50 in assay [1] was 4.02. For the same molecule, the pIC50 is 3.00 to 4.00 at human recombinant HDAC 2 and 4.00 to 5.00 on human recombinant HDAC 8.
On the same counts, the results for `O=C(O)C(CCCc1cccc2ccccc12)CCc1ccccc1` (stereo not drawn) [Example 23, 5-(1-Naphthyl)-2-(2-phenylethyl)pentanoic acid] are 4.17, 4.00 to 5.00 and 4.00 to 5.00.
For the molecule `CN(C)c1ccc(C(=O)Nc2cccc(CCCC(CCc3ccccc3)C(=O)O)c2)cc1` (stereo not drawn) [Example 24, 5-[3-{[4-(dimethylamino)benzoyl]amino}phenyl]-2-(2-phenylethyl)pentanoic acid hydrochloride], the pEC50 in assay [1] was 4.12. Moreover, the pIC50 on human recombinant HDAC 2 is 4.00 to 5.00; on human recombinant HDAC 8 it was ≥ 5.00.
With `CNS(=O)(=O)c1ccc(CCCC(CCc2ccccc2)C(=O)O)s1` (stereo not drawn) [Example 26, 5-{5-[(Methylamino)sulfonyl]thien-2-yl}-2-(2-phenylethyl)pentanoic acid], the pEC50 in assay [1] was 2.77. Further, the pIC50 at human recombinant HDAC 8 is 3.00 to 4.00.
As to `O=C(O)C(CCCc1cccc(S(=O)(=O)NCc2ccccc2)c1)CCc1ccccc1` (stereo not drawn) [Example 27, 5-(3-[(Benzylamino)sulfonyl]phenyl)-2-(2-phenylethyl)pentanoic acid], the negative-log EC50 (pEC50) in assay [1] is 3.85. Moreover, the pIC50 at human recombinant HDAC 2 and on human recombinant HDAC 8 was 4.00 to 5.00 in each case.
On to `O=C(O)C(CCCc1ccccc1)CCc1ccccn1` (stereo not drawn) [Example 28, 5-Phenyl-2-(2-pyridin-2-ylethyl)pentanoic acid], for which the pEC50 in assay [1] was 3.51. Further, the pIC50 on human recombinant HDAC 8 is 3.00 to 4.00.
In turn, `COc1cccc(CCC(CCCc2ccccc2)C(=O)O)c1` (stereo not drawn) [Example 29, 2-[2-(3-methoxyphenyl)ethyl]-5-phenylpentanoic acid] gave a pEC50 in assay [1] of 3.78. Besides, the results for the pIC50 on human recombinant HDAC 2 and on human recombinant HDAC 8 were 3.00 to 4.00 and 4.00 to 5.00, respectively.
Consider `O=C(O)C(CCCc1ccccc1)CCc1cccc(O)c1` (stereo not drawn) [Example 30, 2-[2-(3-Hydroxyphenyl)ethyl]-5-phenylpentanoic acid], for which, in assay [1], the pEC50 is 4.24. For the same molecule, the pIC50 on human recombinant HDAC 8 is 3.00 to 4.00.
In the case of `CC(=O)Nc1ccc(CCC(CCCc2ccccc2)C(=O)O)cc1` (stereo not drawn) [Example 31, 2-{2-[4-(Acetylamino)phenyl]ethyl}-5-phenylpentanoic acid], the values for the pIC50 at human recombinant HDAC 2 and at human recombinant HDAC 8 were 3.00 to 4.00 and 4.00 to 5.00, respectively.
As for `CCCC(CCCc1ccccc1)C(=O)O` (stereo not drawn) [Example 35, 5-Phenyl-2-propylpentanoic acid], in assay [1], the negative logarithm of the EC50 (pEC50) was 2.89. In addition, the figures for the pIC50 at human recombinant HDAC 2 and at human recombinant HDAC 8 were 3.00 to 4.00 and 4.00 to 5.00, respectively.
In assay [1], `Cc1ccc(NS(=O)(=O)c2cccc(C#CCC(CCc3ccccc3)C(=O)O)c2)cc1` (stereo not drawn) [Example 38, 5-[3-(4-Methylanilinosulfonyl)phenyl]-2-(2-phenylethyl)pent-4-ynoic acid] gave a pEC50 of 3.92. Moreover, the results for the negative-log IC50 (pIC50) on human recombinant HDAC 2 and at human recombinant HDAC 8 were 3.00 to 4.00 and 4.00 to 5.00, respectively.
`O=C(O)C(CCCc1cccc(S(=O)(=O)Nc2ccccc2)c1)CCc1ccccc1` (stereo not drawn) [Example 39] had a negative logarithm of the EC50 (pEC50) in assay [1] of 2.92. In addition, the pIC50 at human recombinant HDAC 8 is 3.00 to 4.00.
Regarding `O=C(O)C(CCCc1ccc(S(=O)(=O)Nc2ccccc2)cc1)CCc1ccccc1` (stereo not drawn) [Example 40, 5-(4-[Anilinosulfonyl]phenyl)-2-(2-phenylethyl)pentanoic acid], in assay [1], the pEC50 was 4.35. The pIC50 on human recombinant HDAC 2 and at human recombinant HDAC 8 was 4.00 to 5.00 throughout.
On to `CCc1ccc(CCC(CCCc2ccccc2)C(=O)O)cc1` (stereo not drawn) [Example 45, 2-[2-(4-Ethylphenyl)ethyl]-5-phenylpentanoic acid], for which the pEC50 in assay [1] is 3.78. The figures for the negative logarithm of the IC50 (pIC50) on human recombinant HDAC 2 and on human recombinant HDAC 8 were 4.00 to 5.00 and ≥ 5.00, respectively.
On the same counts, the results for `CCc1ccc(CCC(CCCc2cccc(NC(=O)c3ccc(N(C)C)cc3)c2)C(=O)O)cc1` (stereo not drawn) [Example 49, 5-(3-{[4-(Dimethylamino)benzoyl]amino}phenyl)-2-[2-(4-ethylphenyl)ethyl]pentanoic acid] are 3.85, 3.00 to 4.00 and ≥ 5.00.
On the same counts, the results for `COc1ccc(CCC(CCCc2ccccc2)C(=O)O)cc1` (stereo not drawn) [Example 57, 2-[2-(4-Methoxyphenyl)ethyl]-5-phenylpentanoic acid] are 3.62, 3.00 to 4.00 and 4.00 to 5.00.
On the same counts, the results for `O=C(O)C(CCCc1ccccc1)OCc1ccccc1` (stereo not drawn) [Example 69, 2-(Benzyloxy)-5-phenylpentanoic acid] are 3.02, 3.00 to 4.00 and 4.00 to 5.00.
For the molecule `O=C(O)C(CCCc1ccccc1)CCc1ccc(-c2ccsc2)cc1` (stereo not drawn) [Example 75, 2-{2-[4′-(3-Thienyl)phenyl]ethyl}-5-phenylpentanoic acid], the pEC50 in assay [1] was 3.73. Moreover, on human recombinant HDAC 2, the pIC50 was 3.00 to 4.00.
On the same counts, the results for `O=C(O)C(CCCc1ccccc1)CCc1ccc(-c2ccncc2)cc1` (stereo not drawn) [Example 76, 2-{2-[(4′-Pyridinyl)phenyl-4-yl]ethyl}-5-phenylpentanoic acid hydrochloride] are 3.78 and 4.00 to 5.00.
In turn, `O=C(O)C(CCCc1ccccc1)CCc1ccc(-c2cccnc2)cc1` (stereo not drawn) [Example 77, 2-[2-(4-Pyridin-3′-ylphenyl)ethyl]-5-phenylpentanoic acid] gave a pEC50 in assay [1] of 4.05. Moreover, the results for the pIC50 at human recombinant HDAC 2 and at human recombinant HDAC 8 were 4.00 to 5.00 and ≥ 5.00, respectively.
As for `O=C(O)C(CCCc1ccccc1)CCc1ccc(-c2cccs2)cc1` (stereo not drawn) [Example 78, 5-Phenyl-2-[2-(4′-thien-2-ylphenyl)ethyl]pentanoic acid], the pEC50 in assay [1] was 4.06. In addition, the pIC50 at human recombinant HDAC 2 was 4.00 to 5.00.
On the same counts, the results for `O=C(O)C(CCCc1cccc2ccccc12)CCc1ccc(-c2cccs2)cc1` (stereo not drawn) [Example 79, 5-(1-Naphthyl)-2-[2-(4′-thien-2-ylphenyl)ethyl]-pentanoic acid] are 4.44 and 3.00 to 4.00.
Consider `O=C(O)C(CCCc1cccc2ccccc12)CCc1ccc(-c2cccnc2)cc1` (stereo not drawn) [Example 80, 5-(1-Naphthyl)-2-[2-(4′-pyridin-3-ylphenyl)ethyl]-pentanoic acid], for which the pEC50 in assay [1] was 3.97. The pIC50 on human recombinant HDAC 2 is 4.00 to 5.00.

Values taken from patent publication US20110105544A1, “CARBOXYLIC DERIVATIVES FOR USE IN THE TREATMENT OF CANCER” (priority 2007, published 2011).
